We go through 23 molecules from US5883091A, “1,3,4-oxadiazine derivatives having a pesticide effect” (priority 1994, dated 1999).

The nature of data set [1]: log p (pH 2), physical constants. The format is physicochemical.
The test system of data set [2] is two-spotted spider mite (Tetranychus urticae). Briefly: Tetranychus-Test (OP resistant/spray treatment). The format is in vivo. The settings on record: after 5 days, active compound concentration 0.001%, OP resistant, spray treatment of infested bean plants, 100% = all spider mites destroyed, 0% = none destroyed; for mortality at 0.001 %: Tetranychus urticae, 120 h, read-out: destruction of spider mites (action in %). Here is the method:
Tetranychus-Test (OP resistant/spray treatment)
Solvent: 3 parts by weight of dimethylformamide
Emulsifier: 1 part by weight of alkylaryl polyglycol ether
To prepare a suitable preparation of active compound, 1 part by weight of active compound is mixed with the stated amount of solvent and the stated amount of emulsifier, and the concentrate is diluted with water to the desired concentrations.
Bean plants (Phaseolus vulgaris) which are severely infested with all stages of the two-spotted spider mite (Teiranychus urticae) are sprayed with a preparation of active compound of the desired concentration.
After the desired time, the action is determined in %. 100% means that all spider mites have been destroyed; 0% means that no spider mites have been destroyed.

In general, logD refers to lipophilicity at a set pH, counting ionised and neutral species. A low value points to lower lipophilicity. In data set [1], `Brc1ccc(CN2CCOC(c3cccs3)=N2)cc1` [Example 20] showed a log distribution coefficient (logD) of 4.26.
In the case of `Fc1cccc(F)c1C1=NN(c2ccc(-c3ccc(OC(F)(F)F)cc3)cc2)CCO1` [Example 3, 4-[4-(4-trifluoromethoxyphenyl)phenyl]-2-(2,6-difluorophenyl)-4H-5,6-dihydro-1,3,4-oxadiazine], the mortality at 0.001 % in data set [2] was found to be 95%.
For the molecule `Fc1ccc(CN2CCOC(c3cc(Cl)ccc3Cl)=N2)cc1Oc1ccccc1` [Example 33], the logD in data set [1] worked out at 5.41.
With `Fc1cccc(F)c1C1=NN(Cc2ccccc2)CCO1` [Example 38], the pH-dependent lipophilicity (logD) in data set [1] stood at 3.38.
Same read-out and setting: the same measure for `Fc1cccc(F)c1C1=NN(Cc2cc(Cl)c(OCc3ccc(Cl)cc3)c(Cl)c2)CCO1` [Example 21]: 5.67; for `Clc1ccc(Cl)c(C2=NN(Cc3cccc(Oc4ccccc4)c3)CCO2)c1` [Example 25]: 5.57.
The same measure, in the same setting: then `Fc1cccc(F)c1C1=NN(Cc2ccc(-c3ccc(OC(F)(F)F)cc3)cc2)CCO1` [Example 29], with 5.15; and `Fc1cccc(C2=NN(Cc3ccc(Br)cc3)CCO2)c1` [Example 35], with 4.8.
The same measure, in the same setting: the same measure for `FC(F)(F)Oc1ccc(-c2ccc(CN3CCOC(c4cccs4)=N3)cc2)cc1` [Example 23]: 5.41; for `FC(F)(F)c1cccc(C2=NN(Cc3ccc(Oc4ccc(C(F)(F)F)cc4Cl)cc3)CCO2)c1` [Example 31]: 6.43; for `Fc1cccc(F)c1C1=NN(Cc2ccc(Br)cc2)CCO1` [Example 22]: 4.03.
`Fc1cccc(F)c1C1=NN(Cc2ccc(-c3ccccc3)cc2)CCO1` [Example 30] gave a logD in data set [1] of 4.49.
In the case of `Clc1cc(Cl)cc(C2=NN(Cc3ccc(Br)cc3)CCO2)c1` [Example 34], in data set [1], the logD amounted to 6.47.
In the case of `Fc1ccc(C2=NN(Cc3ccc(Br)cc3)CCO2)cc1` [Example 32], the logD in data set [1] was 4.73.
Same read-out and setting: the same measure for `Fc1cccc(C2=NN(Cc3ccc(-c4ccc(OC(F)(F)F)cc4)cc3)CCO2)c1` [Example 36]: 5.87.
Same read-out and setting: the same measure for `FC(F)(F)Oc1ccc(-c2ccc(CN3CCOC(c4cc(Cl)cc(Cl)c4)=N3)cc2)cc1` [Example 37]: 7.36.
On the same count and under the same terms, then `FC(F)(F)c1ccc(C2=NN(Cc3ccc(Oc4ccc(C(F)(F)F)cc4Cl)cc3)CCO2)cc1` [Example 26], with 6.44; and `Clc1ccc(COc2c(Cl)cc(CN3CCOC(c4cccs4)=N3)cc2Cl)cc1` [Example 24], with 5.95.
Molecule `FC(F)(F)c1ccc(Oc2ccc(CN3CCOC(c4cc(Cl)ccc4Cl)=N3)cc2)c(Cl)c1` [Example 19] had a logD in data set [1] of 6.35.
On to `CC(C)(C)c1ccc(CN2CCOC(c3c(F)cccc3F)=N2)cc1` [Example 4, 2-(2,6-difluorophenyl)-4-(4-tert-butylbenzyl)-4H-5,6-dihydro-1,3,4-oxadiazine], for which, in data set [2], the mortality at 0.001 % stood at 98%.
The molecule `Fc1ccc(CN2CCOC(c3ccc(Cl)c(Cl)c3)=N2)cc1Oc1ccccc1` [Example 27] came in with a pH-dependent lipophilicity (logD) in data set [1] of 6.13.
Still for that read-out and setting: the same measure for `Clc1ccc(C2=NN(Cc3ccc(Oc4ccccc4)cc3)CCO2)c(Cl)c1` [Example 18]: 5.61.
In the case of `FCCN1CCOC(c2ccc(Br)cc2)=N1` [A, 2-(4-Bromophenyl)-4-(2-fluoroeth-1-yl)-4H-5,6-dihydro-1,3,4-oxadiazine, reference compound], the “destruction of spider mites (action in %)” value in data set [2] is “no action”.
